{
  "source": "patent US10189788B2",
  "about": "“Substituted N,2-diarylquinoline-4-carboxamides and the use thereof as anti-inflammatory agents” (BAYER PHARMA AKTIENGESELLSCHAFT, priority 2014, dated 2019)",
  "data": [
    {"biological_target": "Human FP Receptor (Homo sapiens (Human), UniProt P43088)", "sequence (P43088 whole entry)": "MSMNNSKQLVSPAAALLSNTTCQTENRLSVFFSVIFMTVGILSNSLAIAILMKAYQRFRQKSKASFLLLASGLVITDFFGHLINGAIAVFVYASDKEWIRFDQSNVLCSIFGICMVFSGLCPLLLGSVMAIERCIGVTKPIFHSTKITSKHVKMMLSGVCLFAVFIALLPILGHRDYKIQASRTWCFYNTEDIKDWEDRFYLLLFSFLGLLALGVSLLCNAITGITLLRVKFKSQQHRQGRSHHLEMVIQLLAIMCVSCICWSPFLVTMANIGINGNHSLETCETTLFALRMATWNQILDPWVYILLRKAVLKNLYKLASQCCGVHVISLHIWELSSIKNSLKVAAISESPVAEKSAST", "experiment": "In vitro test of inhibition of human FP receptor activity, variant B-1A (PGF2α-induced calcium flux in FP-expressing CHEM1 cells)", "format": "cell-based", "conditions": "calcium flux induced by 3 nM PGF2α, Fluo-8, some mean values from multiple determinations", "description": "• BSA bovine serum albumin • CRTH2 chemoattractant receptor-homologous molecule expressed on T helper type 2 cells • DMEM Dulbecco's modified Eagle's medium • DMSO dimethyl sulfoxide • DP PGD2 receptor • EC50 half-maximum effective concentration • em. emission • EP PGE2 receptor • ex. excitation • FCS fetal calf serum • FP PGF2α receptor • HEPES 2-[4-(2-hydroxyethyl)piperazin-1-yl]ethanesulfonic acid • IC50 half-maximum inhibitory concentration • IP PGI2 receptor • MES 2-(N-morpholino)ethanesulfonic acid • Pen/Strep penicillin/streptomycin • PGD2 prostaglandin D2 • PGE2 prostaglandin E2 • PGF2α prostaglandin F2α • PGI2 prostaglandin […] • TC tissue culture • TP thromboxane A2 receptor • Tris tris(hydroxymethyl)aminomethane • v/v volume to volume ratio (of a solution) • w/w weight to weight ratio (of a solution) B-1.", "units": {"IC50": "nM"}, "values": [
      {"smiles": "CCc1c(-c2ccccc2)nc2ccc(Br)cc2c1C(=O)Nc1ccc(C(=O)O)cc1F", "note": "[Example 39, 4-{[(6-Bromo-3-ethyl-2-phenylquinolin-4-yl)carbonyl]amino}-3-fluorobenzoic acid]", "IC50": 190},
      {"smiles": "COCS(=O)(=O)c1cc(C(=O)O)ccc1NC(=O)c1c(C)c(-c2ccccc2)nc2ccc(Br)cc12", "note": "[Example 60, 4-{[(6-Bromo-3-methyl-2-phenylquinolin-4-yl)carbonyl]amino}-3-[(methoxymethyl)sulfonyl]benzoic acid]", "IC50": 27},
      {"smiles": "Cc1c(C(=O)Nc2ccc(C(=O)O)cc2SC(F)(F)F)c2cc(Br)ccc2[n+]([O-])c1-c1ccccc1", "note": "[Example 54, 4-{[(6-Bromo-3-methyl-1-oxido-2-phenylquinolin-4-yl)carbonyl]amino}-3-[(trifluoromethyl)sulfanyl]benzoic acid]", "IC50": 102},
      {"smiles": "Cc1nc(C(=O)O)ccc1NC(=O)c1c(C)c(-c2ccccc2)nc2ccc(Br)cc12", "note": "[Example 5, 5-{[(6-Bromo-3-methyl-2-phenylquinolin-4-yl)carbonyl]amino}-6-methylpyridine-2-carboxylic acid]", "IC50": 905},
      {"smiles": "COc1cc(C(=O)O)ccc1NC(=O)c1c(C)c(-c2ccccc2)nc2ccc(Br)cc12", "note": "[Example 21, 4-{[(6-Bromo-3-methyl-2-phenylquinolin-4-yl)carbonyl]amino}-3-methoxybenzoic acid]", "IC50": 204},
      {"smiles": "Cc1c(-c2ccccc2)nc2ccc(Br)cc2c1C(=O)Nc1ccc(C(=O)O)cc1[S+](C)[O-]", "note": "(stereo not drawn) [Example 25, 4-{[(6-Bromo-3-methyl-2-phenylquinolin-4-yl)carbonyl]amino}-3-(methylsulfinyl)benzoic acid]", "IC50": 720},
      {"smiles": "Cc1c(-c2ccccc2)nc2ccc(Br)cc2c1C(=O)Nc1ccc(C(=O)O)cc1SC(F)(F)F", "note": "[Example 28, 4-{[(6-Bromo-3-methyl-2-phenylquinolin-4-yl)carbonyl]amino}-3-[(trifluoromethyl)sulfanyl]benzoic acid]", "IC50": 17},
      {"smiles": "Cc1c(-c2ccccc2)nc2ccc(Br)cc2c1C(=O)Nc1ccc(C(=O)O)cc1S(C)(=O)=O", "note": "[Example 26, 4-{[(6-Bromo-3-methyl-2-phenylquinolin-4-yl)carbonyl]amino}-3-(methylsulfonyl)benzoic acid]", "IC50": 86},
      {"smiles": "Cc1c(-c2ccc(F)cc2)nc2ccc(Br)cc2c1C(=O)Nc1ccc(C(=O)O)cc1F", "note": "[Example 43, 4-({[6-Bromo-2-(4-fluorophenyl)-3-methylquinolin-4-yl]carbonyl}amino)-3-fluorobenzoic acid]", "IC50": 52},
      {"smiles": "Cc1c(-c2ccccc2)nc2c(C)cc(Br)cc2c1C(=O)Nc1ccc(C(=O)O)cc1F", "note": "[Example 78, 4-{[(6-Bromo-3,8-dimethyl-2-phenylquinolin-4-yl)carbonyl]amino}-3-fluorobenzoic acid]", "IC50": 154},
      {"smiles": "Cc1c(-c2ccccc2)nc2c(C)cc(Br)cc2c1C(=O)Nc1ccc(C(=O)O)cc1", "note": "[Example 58, 4-{[(6-Bromo-3,8-dimethyl-2-phenylquinolin-4-yl)carbonyl]amino}benzoic acid]", "IC50": 557},
      {"smiles": "O=C(O)c1ccc(NC(=O)c2c(C(F)(F)F)c(-c3ccccc3)nc3ccc(Br)cc23)c(F)c1", "note": "[Example 57, 4-({[6-Bromo-2-phenyl-3-(trifluoromethyl)quinolin-4-yl]carbonyl}amino)-3-fluorobenzoic acid]", "IC50": 437},
      {"smiles": "Cc1cc(C(=O)O)ccc1NC(=O)c1c(C)c(-c2ccccc2)nc2ccc(Br)cc12", "note": "[Example 14, 4-{[(6-Bromo-3-methyl-2-phenylquinolin-4-yl)carbonyl]amino}-3-methylbenzoic acid]", "IC50": 617},
      {"smiles": "Cc1c(-c2ccccc2)nc2ccc(Br)cc2c1C(=O)Nc1ccc(C(=O)O)cc1S(=O)(=O)C(F)(F)F", "note": "[Example 53, 4-{[(6-Bromo-3-methyl-2-phenylquinolin-4-yl)carbonyl]amino}-3-[(trifluoromethyl)sulfonyl]benzoic acid]", "IC50": 31},
      {"smiles": "Cc1c(-c2ccccc2)nc2ccc(Cl)cc2c1C(=O)Nc1ccc(C(=O)O)cc1F", "note": "[Example 59, 4-{[(6-Chloro-3-methyl-2-phenylquinolin-4-yl)carbonyl]amino}-3-fluorobenzoic acid]", "IC50": 203},
      {"smiles": "CCS(=O)(=O)c1cc(C(=O)O)c(OC)cc1NC(=O)c1c(C)c(-c2ccccc2)nc2ccc(Br)cc12", "note": "[Example 27, 4-{[(6-Bromo-3-methyl-2-phenylquinolin-4-yl)carbonyl]amino}-5-(ethylsulfonyl)-2-methoxybenzoic acid]", "IC50": 97},
      {"smiles": "CCCc1c(-c2ccccc2)nc2ccc(Br)cc2c1C(=O)Nc1ccc(C(=O)O)cc1F", "note": "[Example 40, 4-{[(6-Bromo-2-phenyl-3-propylquinolin-4-yl)carbonyl]amino}-3-fluorobenzoic acid]", "IC50": 560},
      {"smiles": "O=C(O)c1cc(F)c(NC(=O)c2c(C(F)(F)F)c(-c3ccccc3)nc3ccc(Br)cc23)c(Br)c1", "note": "[Example 62, 3-Bromo-4-({[6-bromo-2-phenyl-3-(trifluoromethyl)quinolin-4-yl]carbonyl}amino)-5-fluorobenzoic acid]", "IC50": 301},
      {"smiles": "Cc1c(-c2ccccc2)nc2ccc(Br)cc2c1C(=O)Nc1ncc(C(=O)O)cc1F", "note": "[Example 6, 6-{[(6-Bromo-3-methyl-2-phenylquinolin-4-yl)carbonyl]amino}-5-fluoronicotinic acid]", "IC50": 79},
      {"smiles": "Cc1c(-c2ccccc2)nc2ccc(C(C)C)cc2c1C(=O)Nc1ccc(C(=O)O)cc1F", "note": "[Example 33, 3-Fluoro-4-{[(6-isopropyl-3-methyl-2-phenylquinolin-4-yl)carbonyl]amino}benzoic acid]", "IC50": 272},
      {"smiles": "Cc1c(-c2ccccc2)nc2ccc(Br)cc2c1C(=O)Nc1c(Cl)cc(C(=O)O)cc1Cl", "note": "[Example 13, 4-{[(6-Bromo-3-methyl-2-phenylquinolin-4-yl)carbonyl]amino}-3,5-dichlorobenzoic acid]", "IC50": 150},
      {"smiles": "Cc1c(-c2ccccc2)nc2ccc(S(F)(F)(F)(F)F)cc2c1C(=O)Nc1ccc(C(=O)O)cc1F", "note": "[Example 63, 3-Fluoro-4-({[3-methyl-6-(pentafluoro-λ^6-sulfanyl)-2-phenylquinolin-4-yl]carbonyl}amino)benzoic acid]", "IC50": 246},
      {"smiles": "CNC(=O)c1ccc(NC(=O)c2c(C)c(-c3ccccc3)nc3ccc(Br)cc23)c(F)c1", "note": "[Example 56, 6-Bromo-N-[2-fluoro-4-(methylcarbamoyl)phenyl]-3-methyl-2-phenylquinoline-4-carboxamide]", "IC50": 285},
      {"smiles": "Cc1c(-c2ccccc2)nc2ccc(C(F)(F)F)cc2c1C(=O)Nc1ccc(C(=O)O)cc1F", "note": "[Example 34, 3-Fluoro-4-({[3-methyl-2-phenyl-6-(trifluoromethyl)quinolin-4-yl]carbonyl}amino)benzoic acid]", "IC50": 93},
      {"smiles": "Cc1c(-c2ccccc2)nc2ccc(I)cc2c1C(=O)Nc1ccc(C(=O)O)cc1F", "note": "[Example 30, 3-Fluoro-4-{[(6-iodo-3-methyl-2-phenylquinolin-4-yl)carbonyl]amino}benzoic acid]", "IC50": 6},
      {"smiles": "Cc1c(-c2ccccc2)nc2ccc(Br)cc2c1C(=O)Nc1ccc(C(N)=O)cc1", "note": "[Example 47, 6-Bromo-N-(4-carbamoylphenyl)-3-methyl-2-phenylquinoline-4-carboxamide]", "IC50": 197},
      {"smiles": "Cc1c(-c2ccccc2)nc2ccc(Br)cc2c1C(=O)Nc1ccc(C(=O)O)c(F)c1", "note": "[Example 8, 4-{[(6-Bromo-3-methyl-2-phenylquinolin-4-yl)carbonyl]amino}-2-fluorobenzoic acid]", "IC50": 795},
      {"smiles": "CCc1ccc2nc(-c3ccccc3)c(C)c(C(=O)Nc3ccc(C(=O)O)cc3F)c2c1", "note": "[Example 32, 4-{[(6-Ethyl-3-methyl-2-phenylquinolin-4-yl)carbonyl]amino}-3-fluorobenzoic acid]", "IC50": 245},
      {"smiles": "Cc1c(-c2ccccc2)nc2ccc(Br)cc2c1C(=O)Nc1ccc(C(=O)O)cc1OC(F)(F)F", "note": "[Example 23, 4-{[(6-Bromo-3-methyl-2-phenylquinolin-4-yl)carbonyl]amino}-3-(trifluoromethoxy)benzoic acid]", "IC50": 57},
      {"smiles": "Cc1c(-c2ccccc2)nc2ccc([Si](C)(C)C)cc2c1C(=O)Nc1ccc(C(=O)O)cc1F", "note": "[Example 36, 3-Fluoro-4-({[3-methyl-2-phenyl-6-(trimethylsilyl)quinolin-4-yl]carbonyl}amino)benzoic acid]", "IC50": 78},
      {"smiles": "Cc1c(-c2ccccc2)nc2ccc(Br)cc2c1C(=O)Nc1cc(F)c(C(=O)O)cc1F", "note": "[Example 66, 4-{[(6-Bromo-3-methyl-2-phenylquinolin-4-yl)carbonyl]amino}-2,5-difluorobenzoic acid]", "IC50": 282},
      {"smiles": "O=C(O)c1ccc(NC(=O)c2c(Cl)c(-c3ccccc3)nc3ccc(Br)cc23)c(F)c1", "note": "[Example 76, 4-{[(6-Bromo-3-chloro-2-phenylquinolin-4-yl)carbonyl]amino}-3-fluorobenzoic acid]", "IC50": 17},
      {"smiles": "Cc1c(-c2ccccc2)nc2ccc(Br)cc2c1C(=O)Nc1ccc(C(=O)O)cc1Cl", "note": "[Example 9, 4-{[(6-Bromo-3-methyl-2-phenylquinolin-4-yl)carbonyl]amino}-3-chlorobenzoic acid]", "IC50": 65},
      {"smiles": "Cc1c(-c2ccccc2)nc2ccc(C(F)F)cc2c1C(=O)Nc1ccc(C(=O)O)cc1F", "note": "[Example 64, 4-({[6-(Difluoromethyl)-3-methyl-2-phenylquinolin-4-yl]carbonyl}amino)-3-fluorobenzoic acid]", "IC50": 362},
      {"smiles": "Cc1c(-c2ccccc2)nc2ccc(Br)c(Cl)c2c1C(=O)Nc1ccc(C(=O)O)cc1F", "note": "[Example 55, 4-{[(6-Bromo-5-chloro-3-methyl-2-phenylquinolin-4-yl)carbonyl]amino}-3-fluorobenzoic acid]", "IC50": 49},
      {"smiles": "CC(=O)Nc1cc(C(=O)O)ccc1NC(=O)c1c(C)c(-c2ccccc2)nc2ccc(Br)cc12", "note": "[Example 19, 3-Acetamido-4-{[(6-bromo-3-methyl-2-phenylquinolin-4-yl)carbonyl]amino}benzoic acid]", "IC50": 650}
    ]}
  ]
}
